Measurements published in patent publication US7244762B2, “Antitumoral d-homoestra-1,3,5 (10)-trien-3-yl 2-substituted sulfamates” (Sterix Limited, priority 2003, dated 2007).

Columns and labels:
[1] = system: NCl-H460 human non-small-cell lung cancer cells; experiment: Inhibition of cell proliferation, crystal violet staining; format: cell-based; settings: NCl-H460, 4 days incubation
Procedure: (§1) Cell cultures of the following cell lines were prepared in 96-well microtiter plates: • 1. MaTu/ADR multidrug-resistant human breast tumor cells (Epo GmbH Berlin), 5000 cells/well. • 2. HCT116 human colon tumor cells (ATCC CCL-247), 3000 cells/well. • 3. NCl-H460 human non-small-cell lung cancer cells (ATCC HTB-177), 3000 cells/well. • 4. DU145 human prostate tumor cells (ATCC HTB-81), 5000 cells/well. • 5. HMVEC human primary dermal microvascular endothelial cells, 7500 cells/well.
(§2) After 24 hours of incubation in a cell culture incubator at 37° C., the cells of a microtiter plate were stained with crystal violet (reference plate), while the cells in the test plates were incubated for 4 days with the test substances in the concentrations […], as well as with the DMSO solvent by itself (solvent control). The cell proliferation was determined by staining cells with crystal violet. The extinction of the crystal violet was determined by photometry at 595 nm. The percentage of the change in the cell number in the test plates was determined after the extinction values were normalized to the reference plate (0%) and to the solvent control (100%). The semi-maximal inhibition of the cell growth (IC50) was determined as the substance concentration, in which 50% of the cell number of the solvent controls were present.

[2] = system: HCT116 human colon tumor cells; experiment: as above; format: cell-based; settings: HCT116, 4 days incubation
Procedure: as §1, §2

[3] = system: MaTu/ADR multidrug-resistant human breast tumor cells; experiment: as above; format: cell-based; settings: 4 days incubation
Procedure: as §1, §2

[4] = system: HMVEC human primary dermal microvascular endothelial cells; experiment: as above; format: cell-based; settings: 4 days incubation
Procedure: as §1, §2

[5] = system: DU145 human prostate tumor cells; experiment: as above; format: cell-based; settings: DU145, 4 days incubation
Procedure: as §1, §2

[6] = biological target: T1, tubulin (microtubular protein purified from pig brains) (Sus scrofa, UniProt P02550+P02554); experiment: Inhibition of tubulin polymerization (turbidimetry at 340 nm); format: biochemical; settings: pig brain microtubular protein 1 mg/ml, 0.25 mmol GTP, 37° C.
T1 construct: microtubular protein was purified from pig brains via cydic assembling/disassembling; from tissue; host or cells: pig brain
Procedure: The in-vitro testing of the tubulin polymerization influence was performed as follows:
According to Shelanski et al. (Shelanski et al. Proc. Natl. Acad. Sci. USA 1973, 70, 765-8), microtubular protein was purified from pig brains via cydic assembling/disassembling. The buffer system used had the following composition: 20 mmol of PIPES (1,4-piperazine-diethane-sulfonic acid, pKa 6.8), 80 mmol of NaCl, 0.5 mmol of MgCl2, 1 mmol of EGTA [ethylene glycol-bis-(2-aminoethylene)-tetraacetic acid].
For active ingredient testing, protein concentrations of 1 mg/ml (about 10^−5 mmol of tubulin) were used. The determination of protein was carried out according to the Lowry Method (Lowry et al. J. Biol. Chem. 1951, 193, 265-75) with bovine serum albumin as a standard. The assembling of microtubuli was carried out in the presence of 0.25 mmol of GTP and heating the samples to 37° C.
The microtubulus formation was examined by means of turbidimetry at a wavelength of 340 nm.
Testing of the active ingredients was carried out by their addition at the beginning of the assembling or in the state of equilibrium. […] To monitor action and to evaluate the measured turbidity values, a transmission electron microscopic study (CEM 902 A, Zeiss/Oberkochen) of the assemblates was always performed after negative staining with 1% aqueous uranyl acetate.

T1 sequence (P02550 whole entry): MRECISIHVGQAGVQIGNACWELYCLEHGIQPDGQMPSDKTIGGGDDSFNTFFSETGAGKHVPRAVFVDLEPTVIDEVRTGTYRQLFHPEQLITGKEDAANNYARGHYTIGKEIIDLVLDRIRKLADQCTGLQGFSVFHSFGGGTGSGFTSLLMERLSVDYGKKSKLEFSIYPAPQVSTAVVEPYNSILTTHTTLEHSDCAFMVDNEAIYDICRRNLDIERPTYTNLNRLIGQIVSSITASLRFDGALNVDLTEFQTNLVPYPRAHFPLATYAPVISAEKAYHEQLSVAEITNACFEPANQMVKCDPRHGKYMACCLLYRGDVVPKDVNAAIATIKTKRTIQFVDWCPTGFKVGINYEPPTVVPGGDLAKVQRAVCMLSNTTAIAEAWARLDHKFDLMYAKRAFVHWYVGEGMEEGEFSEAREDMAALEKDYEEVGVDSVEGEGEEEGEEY
T1 sequence (P02554 whole entry): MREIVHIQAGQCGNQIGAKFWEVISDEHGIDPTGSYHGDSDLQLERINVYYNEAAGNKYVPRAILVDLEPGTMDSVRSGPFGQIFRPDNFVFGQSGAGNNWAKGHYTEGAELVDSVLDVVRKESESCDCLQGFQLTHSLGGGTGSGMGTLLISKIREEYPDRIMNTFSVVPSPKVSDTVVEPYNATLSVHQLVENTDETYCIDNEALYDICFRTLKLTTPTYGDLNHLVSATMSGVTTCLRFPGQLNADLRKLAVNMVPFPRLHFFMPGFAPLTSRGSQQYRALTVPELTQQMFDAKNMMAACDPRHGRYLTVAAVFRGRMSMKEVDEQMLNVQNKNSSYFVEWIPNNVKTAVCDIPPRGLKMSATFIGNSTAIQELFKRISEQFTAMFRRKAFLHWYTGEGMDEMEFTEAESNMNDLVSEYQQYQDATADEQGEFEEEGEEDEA

IC50 [1] [nM]	IC50 [2] [nM]	IC50 [3] [nM]	IC50 [5] [nM]	IC50 [6] [nM]	IC50 ([1]; Homo sapiens, 96 h) [nM]	IC50 ([2]; Homo sapiens, HCT-116, 96 h) [nM]	IC50 ([3]; Homo sapiens, 96 h) [nM]	IC50 ([5]; Homo sapiens, DU-145, 96 h) [nM]	Structure (SMILES)	IC50 [4] [nM]	IC50 ([4]; Homo sapiens, 96 h) [nM]
1800	1100	200	1900	2700	–	–	–	–	COc1cc2c(cc1O)CC[C@@H]1[C@@H]2CC[C@]2(C)[C@@H](O)CC[C@@H]12 [2-Methoxyestradiol, reference compound]	2200	–
180	180	< 100	500	–	–	–	–	–	COc1cc2c(cc1OS(N)(=O)=O)CC[C@@H]1[C@@H]2CC[C@]2(C)C(=O)CCC[C@@H]12 [(1), 2-Methoxy-17a-oxo-17a-homoestra-1,3,5(10)-trien-3-yl Sulfamate]	220	–
1800	1800	800	2800	–	–	–	–	–	COc1cc2c(cc1OS(N)(=O)=O)CC[C@@H]1[C@@H]2CC[C@]2(C)[C@@H](OS(N)(=O)=O)CCC[C@@H]12 [(4), 2-Methoxy-17a-homoestra-1,3,5(10)-triene-3,17aβ-diyl Bissulfamate]	600	–
–	–	–	–	950	600	600	200	600	COc1cc2c(cc1OS(N)(=O)=O)CC[C@@H]1[C@@H]2CC[C@]2(C)CCCC[C@@H]12 [(2), 2-Methoxy-17a-homoestra-1,3,5(10)-trien-3-yl Sulfamate]	–	500
–	–	–	–	–	4	4	400	4	CC(=O)O[C@H]1C(=O)[C@@]2(C)[C@H]([C@H](OC(=O)c3ccccc3)[C@]3(O)C[C@H](OC(=O)[C@H](O)[C@@H](NC(=O)c4ccccc4)c4ccccc4)C(C)=C1C3(C)C)[C@]1(OC(C)=O)CO[C@@H]1C[C@@H]2O [Taxol, reference compound]	–	4
